This is an account of results in patent US20220408703A1, “IMAGING INDIVIDUAL HIPPOCAMPAL SEIZURES AND THE LONG-TERM IMPACT OF REPEATED SEIZURES” (The Board of Trustees of the Leland Stanford Junior …, priority 2019, published 2022).

For this test, the system named is optogenetically induced ventral hippocampal seizures in rats. The following applies: same animals awake and under dexmedetomidine sedation.

Source text: (A,B) Ventral hippocampal LFP recordings from the same animal and seizures induced when awake and under sedation. Red arrow indicates large amplitude spike onset, and insets i-iii) are magnified components of those seizures. Blue bar indicates time of optogenetic stimulation (40 Hz with 7.5 ms pulses) (C) Another set of electrophysiological recordings from a different animal in the awake and sedated state. […] Each line represents a single animal.
The afterdischarge threshold was first evaluated for each individual animal by gradually increasing stimulation intensity in a step-wise manner to drive electrographic seizures in the absence of behavioral seizures as assessed using the Racine scale. Starting with a 10 s train of 40 Hz stimulation with a pulse width of 7.5 ms at 1 mW, the power was increased 1 mW at a time with an interstimulus interval (ISI) of 1 min up to a maximum of 20 mW. If no afterdischarges were observed, the duration was increased by 2.5 s and power was reset to 1 mW.
Simultaneous LFP-ofMRI Data Acquisition to assess ventral hippocampal connectivity. To assess ventral hippocampal connectivity, CAMKIIa cells in ventral hippocampus were stimulated at 10 Hz using optogenetic stimulation and assessed using simultaneous LFP-fMRI. Data acquisition was performed using the 7T horizontal-bore system (Bruker BioSpec 70/30) at the Stanford Center for Innovation in In-Vivo Imaging (SCi3). […] A single bolus of Feraheme (15 mg/kg, i.v.) was used for cerebral blood volume (CBV) weighted imaging for the enhanced contrast to noise ratio (Mandeville et al., 1998) and microvascular sensitivity (Zhao et al., 2006) that this technique offers in comparison to BOLD fMRI. fMRI acquisition was carried out approximately 15 min post contrast agent injection using a 4-shot segmented spiral readout with the following acquisition parameters: TR=0.75 ms, TE=9 ms, flip angle=30, field-of-view=32×32 mm, matrix=70×70, slice thickness=0.6 mm, number of slices=30, number of repetitions=130, number of dummy scans=4. […]

For `Cc1cccc([C@H](C)c2cnc[nH]2)c1C` [dexmedetomidine], the “proportion of stimulations resulting in afterdischarges, awake vs sedated” value (40 Hz, 7.5 ms pulses, FIG. 10D) is “No differences”. Further, the “large amplitude spike onset, awake vs sedated” value (FIG. 10E) is on record as “No differences”. Besides, where the note is “FIG. 10F”, the “afterdischarge duration, sedated vs awake” value is on record as “did not result in shorter afterdischarges”.
